Where no end group is shown, it is not given here.
Experiments:
HLA-A*0301 [1] = molecular target: T1, HLA-A*0301 (Homo sapiens, UniProt P04439); assay: Stability of peptide-HLA complex, binding at 4° C. and 20° C., HLA-A*0301; conditions: for HLA binding Stability (Table 5): HLA type A3; for Peptide Binding Stability: HLA-A*0301, IC50 at 20° C. vs 4° C.
T1 construct: B-cell lines used are: CAA (A*0101), EKR (A*0301), BVR (A*1101), VIJF (A*2401); endogenous in cells; host or cells: B-cell line EKR
Method: (§1) Stability of other peptide-HLA complexes was preferably determined as follows. […] Peptides of >50% of the initial complexes was lost within 2 hours were considered unstable. […] The rest was designated as unstable peptide binding.
(§2) Peptides 8-11 residues in length were selected based on typical anchor residues for HLA-A*0101, A*0301, A*1101 and HLA-A*2401 (Rammensee H G et al). The capacity of peptides to bind was tested in a competition based cellular binding assay as previously described (van der Burg S H et al 1995). FL-labeled reference peptides were synthesized as Cys-derivative (van der Burg S H et al 1995). Fluorescence labeled reference peptides used were: YLEPAC(FL)AK (SEQ ID NO: 87) (HLA-A*0101) and KVFPC(FL)ALINK (SEQ ID NO: 88) (HLA-A*1101) (Sette A et al), KVFPC(FL)ALINK (SEQ ID NO: 89) (HLAA*0301) (van der Burg S H et al 1995) and RYLKC(FL)QQLL (SEQ ID NO: 90) (A*2401) (Dai L C et al). B-cell lines used are: CAA (A*0101), EKR (A*0301), BVR (A*1101), VIJF (A*2401). The relative binding capacity of the peptides is expressed as the peptide concentration to inhibit 50% (1050) of the binding of the reference peptide. […] Peptide stabilization for HLA-A*0201 was performed as previously described (van der Burg S H et al, 1996). Peptides of >50% of the initial complexes was lost within 2 hours were considered unstable. Stability of other peptide-HLA complexes was determined as follows. Peptide binding was performed at 4° C. and 20° C. and 1050 were determined. […] The rest was designated as unstable peptide binding.

HLA-A*1101 = molecular target: T2, HLA-A*1101 (Homo sapiens, UniProt P04439, A114D/D185E/E176A/F33Y/L180Q/S129P/T187R); assay: Stability of peptide-HLA complex, binding at 4° C. and 20° C., HLA-A*1101; conditions: for HLA binding Stability (Table 5): HLA type A11; for Peptide Binding Stability: HLA-A*1101, IC50 at 20° C. vs 4° C.
T2 construct: B-cell lines used are: CAA (A*0101), EKR (A*0301), BVR (A*1101), VIJF (A*2401); endogenous in cells; host or cells: B-cell line BVR
Method: as §1, §2

HLA-A*0301 [2] = molecular target: T1, HLA-A*0301; assay: Competition based cellular binding assay, HLA-A*0301 (B-cell line EKR); conditions: for IC50: read-out: Peptide Binding Affinity; for HLA binding Affinity (Table 5): HLA type A3

| IC50 (HLA-A*0301 [2]; HLA-A*0301, IC50 category) [µM] | HLA binding Affinity (Table 5) (HLA-A*0301 [2]) | Peptide Binding Affinity (HLA-A*0301 [2]; HLA-A*0301, IC50 category) | Molecule | HLA binding Stability (Table 5) (HLA-A*0301 [1]) | Peptide Binding Stability (HLA-A*0301 [1]) | HLA binding Stability (Table 5) (HLA-A*1101) | Peptide Binding Stability (HLA-A*1101) |
| --- | --- | --- | --- | --- | --- | --- | --- |
|  |  |  | C[C@@H](O)[C@H](NC(=O)[C@@H](N)CCCCN)C(=O)N[C@@H](Cc1ccc(O)cc1)C(=O)N[C@@H](CCC(N)=O)C(=O)NCC(=O)N[C@@H](CO)C(=O)N[C@@H](Cc1ccc(O)cc1)C(=O)NCC(=O)N[C@@H](Cc1ccccc1)C(=O)N[C@@H](CCCNC(=N)N)C(=O)O [p53 101-110] | +/− (Peptides that displayed IC50 at 20 °C of more than twice the IC50 at 4 °C but IC50 < 15 μM were considered to bind with intermediate stability.) | +/− (Peptides that displayed IC50 at 20 °C of more than twice the IC50 at 4 °C but IC50 < 15 μM were considered to bind with intermediate stability.) | +/− (Peptides that displayed IC50 at 20 °C of more than twice the IC50 at 4 °C but IC50 < 15 μM were considered to bind with intermediate stability.) | +/− (Peptides that displayed IC50 at 20 °C of more than twice the IC50 at 4 °C but IC50 < 15 μM were considered to bind with intermediate stability.) |
| 5 to 15 |  |  | CC(C)C[C@H](NC(=O)[C@H](C)NC(=O)[C@@H]1CCCN1C(=O)[C@H](CO)NC(=O)[C@H](Cc1ccc(O)cc1)NC(=O)[C@@H](NC(=O)[C@H](CS)NC(=O)[C@@H](NC(=O)[C@@H](N)C(C)C)[C@@H](C)O)[C@@H](C)O)C(=O)N[C@@H](CC(N)=O)C(=O)N[C@@H](CCCCN)C(=O)O [p53 122-132] |  | + (Stable peptides displayed IC50 at 20 °C that deviated <2 times of the IC50 at 4° C.) |  |  |
|  |  |  | CC(C)C[C@H](NC(=O)[C@H](C)NC(=O)[C@@H]1CCCN1C(=O)[C@H](CO)NC(=O)[C@H](Cc1ccc(O)cc1)NC(=O)[C@@H](NC(=O)[C@@H](N)CS)[C@@H](C)O)C(=O)N[C@@H](CC(N)=O)C(=O)N[C@@H](CCCCN)C(=O)O [p53 124-132] |  | + (Stable peptides displayed IC50 at 20 °C that deviated <2 times of the IC50 at 4° C.) |  | + (Stable peptides displayed IC50 at 20 °C that deviated <2 times of the IC50 at 4° C.) |
|  |  |  | CC[C@H](C)[C@H](NC(=O)[C@H](C)NC(=O)[C@H](CCSC)NC(=O)[C@H](C)NC(=O)[C@H](CCCNC(=N)N)NC(=O)[C@@H](NC(=O)[C@H](CCCNC(=N)N)NC(=O)[C@@H](NC(=O)CN)[C@@H](C)O)C(C)C)C(=O)N[C@@H](Cc1ccc(O)cc1)C(=O)O [p53 154-163] | − (The rest was designated as unstable peptide binding.) | − (The rest was designated as unstable peptide binding.) |  |  |
|  |  |  | CC[C@H](C)[C@H](NC(=O)[C@H](C)NC(=O)[C@H](CCSC)NC(=O)[C@H](C)NC(=O)[C@H](CCCNC(=N)N)NC(=O)[C@@H](NC(=O)[C@H](CCCNC(=N)N)NC(=O)[C@@H](NC(=O)CN)[C@@H](C)O)C(C)C)C(=O)N[C@@H](Cc1ccc(O)cc1)C(=O)N[C@@H](CCCCN)C(=O)O [p53 154-164] | + (Stable peptides displayed IC50 at 20 °C that deviated <2 times of the IC50 at 4° C.) | + (Stable peptides displayed IC50 at 20 °C that deviated <2 times of the IC50 at 4° C.) |  |  |
|  |  |  | CC[C@H](C)[C@H](NC(=O)[C@H](C)NC(=O)[C@H](CCSC)NC(=O)[C@H](C)NC(=O)[C@H](CCCNC(=N)N)NC(=O)[C@@H](NC(=O)[C@@H](N)CCCNC(=N)N)C(C)C)C(=O)N[C@@H](Cc1ccc(O)cc1)C(=O)N[C@@H](CCCCN)C(=O)O [p53 156-164] | + (Stable peptides displayed IC50 at 20 °C that deviated <2 times of the IC50 at 4° C.) | + (Stable peptides displayed IC50 at 20 °C that deviated <2 times of the IC50 at 4° C.) | + (Stable peptides displayed IC50 at 20 °C that deviated <2 times of the IC50 at 4° C.) | + (Stable peptides displayed IC50 at 20 °C that deviated <2 times of the IC50 at 4° C.) |
|  |  |  | CC(C)[C@H](N)C(=O)N[C@H](C(=O)N[C@@H](CCCNC(=N)N)C(=O)N[C@@H](CCCNC(=N)N)C(=O)N[C@@H](CS)C(=O)N1CCC[C@H]1C(=O)N[C@@H](Cc1c[nH]cn1)C(=O)N[C@@H](Cc1c[nH]cn1)C(=O)N[C@@H](CCC(=O)O)C(=O)N[C@@H](CCCNC(=N)N)C(=O)O)C(C)C [p53 172-181] | + (Stable peptides displayed IC50 at 20 °C that deviated <2 times of the IC50 at 4° C.) | + (Stable peptides displayed IC50 at 20 °C that deviated <2 times of the IC50 at 4° C.) |  |  |
|  |  |  | CC(C)C[C@H](NC(=O)[C@H](Cc1c[nH]cn1)NC(=O)[C@H](CO)NC(=O)[C@H](CO)NC(=O)[C@H](Cc1c[nH]cn1)NC(=O)[C@H](C)NC(=O)[C@@H](N)CCCNC(=N)N)C(=O)N[C@@H](CCCCN)C(=O)N[C@@H](CO)C(=O)N[C@@H](CCCCN)C(=O)N[C@@H](CCCCN)C(=O)O [p53 363-373] | + (Stable peptides displayed IC50 at 20 °C that deviated <2 times of the IC50 at 4° C.) | + (Stable peptides displayed IC50 at 20 °C that deviated <2 times of the IC50 at 4° C.) |  |  |
|  |  |  | CSCC[C@H](NC(=O)[C@H](CC(C)C)NC(=O)[C@H](CCCCN)NC(=O)[C@H](CCCCN)NC(=O)[C@H](Cc1c[nH]cn1)NC(=O)[C@H](CCCNC(=N)N)NC(=O)[C@H](CO)NC(=O)[C@@H](NC(=O)[C@@H](N)CO)[C@@H](C)O)C(=O)N[C@@H](Cc1ccccc1)C(=O)N[C@@H](CCCCN)C(=O)O [p53 376-386] | − (The rest was designated as unstable peptide binding.) | +/− (Peptides that displayed IC50 at 20 °C of more than twice the IC50 at 4 °C but IC50 < 15 μM were considered to bind with intermediate stability.) |  |  |
| 5 to 15 | int |  | GGSRAHSSHLK [p53 360-370] | − (The rest was designated as unstable peptide binding.) | − (The rest was designated as unstable peptide binding.) |  |  |
|  | high | high | GSRAHSSHLK [p53 361-370] | + (Stable peptides displayed IC50 at 20 °C that deviated <2 times of the IC50 at 4° C.) | + (Stable peptides displayed IC50 at 20 °C that deviated <2 times of the IC50 at 4° C.) |  |  |
| 5 to 15 | int |  | RAHSSHLKSK [p53 363-372] | − (The rest was designated as unstable peptide binding.) | +/− (Peptides that displayed IC50 at 20 °C of more than twice the IC50 at 4 °C but IC50 < 15 μM were considered to bind with intermediate stability.) |  |  |
| 5 to 15 | int |  | RVRAMAIY [p53 156-163] | − (The rest was designated as unstable peptide binding.) | − (The rest was designated as unstable peptide binding.) |  |  |

— patent US8663646B2, “P53 peptide vaccine” (priority 2007, dated 2014)
